Assays:
[1] = system: A-549 human lung cancer cells; assay: Antitumor activity in the nude mouse tumor xenograft model (A-549); assay type: in vivo; details: A-549 s.c. xenograft in nude mice; for inhibition of A-549 tumor growth: 28-34 days, versus vehicle; for average tumor size: over a period of 28-34 days, vehicle about 600 mm^3, s.c. osmotic mini-pumps
Excerpt: Antitumor activity in the nude mouse tumor xenograft model—Nude mice (Charles River, Wilmington, Mass.) were maintained in accordance with the Institutional Animal Care and Use Committee (IACUC) procedures and guidelines. A-549 cells were harvested, resuspended in PBS and injected s.c. into the right and left flank (7×10^6 cells per flank) of 8 week old female nude mice as reported previously (1, 2). When tumors reached 50 to 100 mm^3, animals either were implanted s.c. with 2-week osmotic mini-pumps (Alzet 2002, Alzet, Palo Alto, Calif.). The mini-pumps were implanted on the right flank and the tumor cells on the left flank. Control animals received a saline vehicle whereas treated animals were injected with either vehicle, GGTI-2154, GGTI-2418, GGTI-2432 and GGTI-2430. The tumor volumes were determined by measuring the length (l) and the width (w) and calculating the volume (V=lw^2/2) as described previously (30, 31).

[2] = system: Rap1A processing by GGTase-I; assay: Inhibition of Rap1A processing (geranylgeranylation) in oncogenic H-Ras-transformed NIH 3T3 cells, immunoblot; assay type: cell-based; details: read-out: IC50, block of Rap1A processing by GGTase-I
Experimental: (§1) The in vitro inhibition assays of GGTase-1 and FTase were carried out by measuring the [^3H]GGPP and [^3H]FPP incorporated into H-Ras-CVLL and H-Ras-CVLS, respectively, as previously described.^27 The in vivo inhibition of geranylgeranylation and farnesylation was determined based on the level of inhibition of Rap1A and H-Ras processing, respectively.^10 Briefly, oncogenic H-Ras-transformed NIH 3T3 cells were treated with various concentrations of inhibitors, and the cell lysates were separated on 12.5% SDS-PAGE. The separated proteins were transferred to nitrocellulose and immunoblotted using an anti-Ras antibody (Y13-258) or an anti-Rap1A antibody (SC-65). Antibody reactions were visualized using either peroxidase-conjugated goat anti-rat IgG or goat anti-rabbit IgG and an enhanced chemiluminescence detection system. The results of those assays appear in Table 1 (FIG. 9), Table 2 (FIG. 10) and Table 3 (FIG. 11).

GGTase-I = GGTase-I (Homo sapiens, UniProt P49354+P53609); assay: In vitro GGTase-I inhibition ([3H]GGPP incorporation into H-Ras-CVLL); assay type: biochemical; details: Table 3, FIG. 11
Experimental: as §1

Row | IC50 [2] [µM] | inhibition of GGTase-I (activity in words) (GGTase-I) | Structure (SMILES) | inhibition of A-549 tumor growth [1] [%] | average tumor size [1] [mm^3]
1 |  |  | Cc1ccccc1-c1cc(NCc2cnc[nH]2)ccc1C(=O)N[C@@H](CC(C)C)C(=O)O [GGTI-2154, reference compound] | 66 | 250
2 | 0.3 |  | COC(=O)[C@H](CC(C)C)NC(=O)N1CCN(Cc2nc[nH]c2C)C(=O)[C@@H]1Cc1ccccc1 [GGTI-2417] |  | 
3 |  | exceptional activity | Cc1nc[nH]c1CN1CCN(C(=O)N[C@@H](CC(C)C)C(=O)O)[C@@H](Cc2ccccc2)C1=O [GGTI-2418] | 57 | 280

— US7763620B2, “Piperazinone compounds as anti-tumor and anti-cancer agents and methods of treatment” (Yale University, priority 2001, dated 2010)
